Structures are written as SMILES.

Sequence of PI3K (p110α/p85α) (P42336 whole entry): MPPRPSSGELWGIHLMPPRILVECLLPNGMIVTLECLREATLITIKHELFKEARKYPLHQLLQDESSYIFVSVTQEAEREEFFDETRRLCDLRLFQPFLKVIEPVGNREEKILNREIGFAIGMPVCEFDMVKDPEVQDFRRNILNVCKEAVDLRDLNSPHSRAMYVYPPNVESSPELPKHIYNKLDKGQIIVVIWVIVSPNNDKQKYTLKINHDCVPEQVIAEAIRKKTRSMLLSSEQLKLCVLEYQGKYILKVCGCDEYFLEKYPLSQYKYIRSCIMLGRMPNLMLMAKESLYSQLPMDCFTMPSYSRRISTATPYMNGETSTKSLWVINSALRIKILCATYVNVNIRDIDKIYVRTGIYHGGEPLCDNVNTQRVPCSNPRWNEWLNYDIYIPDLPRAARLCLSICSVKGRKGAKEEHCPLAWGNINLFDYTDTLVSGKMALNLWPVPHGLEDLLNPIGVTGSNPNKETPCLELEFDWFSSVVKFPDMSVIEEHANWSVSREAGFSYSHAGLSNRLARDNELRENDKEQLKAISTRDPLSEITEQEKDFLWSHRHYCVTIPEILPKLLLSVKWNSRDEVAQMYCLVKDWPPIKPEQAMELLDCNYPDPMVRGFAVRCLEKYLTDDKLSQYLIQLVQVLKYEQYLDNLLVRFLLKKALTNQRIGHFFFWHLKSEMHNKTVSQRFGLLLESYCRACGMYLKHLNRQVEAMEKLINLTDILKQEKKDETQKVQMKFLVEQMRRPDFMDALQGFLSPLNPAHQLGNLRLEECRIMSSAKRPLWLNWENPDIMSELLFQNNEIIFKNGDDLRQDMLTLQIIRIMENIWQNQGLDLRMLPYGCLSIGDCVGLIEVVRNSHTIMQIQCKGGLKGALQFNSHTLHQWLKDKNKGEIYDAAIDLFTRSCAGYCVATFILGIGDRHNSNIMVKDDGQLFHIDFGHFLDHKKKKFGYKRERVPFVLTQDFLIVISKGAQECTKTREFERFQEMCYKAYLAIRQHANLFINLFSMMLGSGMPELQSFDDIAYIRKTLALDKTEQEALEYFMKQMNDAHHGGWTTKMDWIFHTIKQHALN
Sequence of PI3K (p110α/p85α) (P27986 whole entry partner): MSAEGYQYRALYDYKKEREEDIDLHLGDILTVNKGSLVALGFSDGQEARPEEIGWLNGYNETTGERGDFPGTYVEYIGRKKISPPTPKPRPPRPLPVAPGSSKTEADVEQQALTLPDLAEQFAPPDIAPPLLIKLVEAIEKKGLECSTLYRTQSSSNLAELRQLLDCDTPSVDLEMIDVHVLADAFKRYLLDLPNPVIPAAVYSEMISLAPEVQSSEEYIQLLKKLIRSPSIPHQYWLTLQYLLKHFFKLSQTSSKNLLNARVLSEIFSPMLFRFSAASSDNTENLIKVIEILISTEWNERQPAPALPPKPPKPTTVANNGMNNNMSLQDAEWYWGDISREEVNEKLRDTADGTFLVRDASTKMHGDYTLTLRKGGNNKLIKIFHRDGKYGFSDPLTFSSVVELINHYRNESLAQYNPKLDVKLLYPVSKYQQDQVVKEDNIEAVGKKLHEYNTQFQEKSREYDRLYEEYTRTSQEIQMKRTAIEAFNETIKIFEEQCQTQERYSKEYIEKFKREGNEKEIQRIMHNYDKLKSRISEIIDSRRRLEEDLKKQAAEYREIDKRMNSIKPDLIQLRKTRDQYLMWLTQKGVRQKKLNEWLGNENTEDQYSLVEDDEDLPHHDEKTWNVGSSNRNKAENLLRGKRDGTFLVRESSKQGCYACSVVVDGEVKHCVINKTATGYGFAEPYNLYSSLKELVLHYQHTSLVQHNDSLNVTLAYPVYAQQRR
Sequence of ATR (Q13535 whole entry): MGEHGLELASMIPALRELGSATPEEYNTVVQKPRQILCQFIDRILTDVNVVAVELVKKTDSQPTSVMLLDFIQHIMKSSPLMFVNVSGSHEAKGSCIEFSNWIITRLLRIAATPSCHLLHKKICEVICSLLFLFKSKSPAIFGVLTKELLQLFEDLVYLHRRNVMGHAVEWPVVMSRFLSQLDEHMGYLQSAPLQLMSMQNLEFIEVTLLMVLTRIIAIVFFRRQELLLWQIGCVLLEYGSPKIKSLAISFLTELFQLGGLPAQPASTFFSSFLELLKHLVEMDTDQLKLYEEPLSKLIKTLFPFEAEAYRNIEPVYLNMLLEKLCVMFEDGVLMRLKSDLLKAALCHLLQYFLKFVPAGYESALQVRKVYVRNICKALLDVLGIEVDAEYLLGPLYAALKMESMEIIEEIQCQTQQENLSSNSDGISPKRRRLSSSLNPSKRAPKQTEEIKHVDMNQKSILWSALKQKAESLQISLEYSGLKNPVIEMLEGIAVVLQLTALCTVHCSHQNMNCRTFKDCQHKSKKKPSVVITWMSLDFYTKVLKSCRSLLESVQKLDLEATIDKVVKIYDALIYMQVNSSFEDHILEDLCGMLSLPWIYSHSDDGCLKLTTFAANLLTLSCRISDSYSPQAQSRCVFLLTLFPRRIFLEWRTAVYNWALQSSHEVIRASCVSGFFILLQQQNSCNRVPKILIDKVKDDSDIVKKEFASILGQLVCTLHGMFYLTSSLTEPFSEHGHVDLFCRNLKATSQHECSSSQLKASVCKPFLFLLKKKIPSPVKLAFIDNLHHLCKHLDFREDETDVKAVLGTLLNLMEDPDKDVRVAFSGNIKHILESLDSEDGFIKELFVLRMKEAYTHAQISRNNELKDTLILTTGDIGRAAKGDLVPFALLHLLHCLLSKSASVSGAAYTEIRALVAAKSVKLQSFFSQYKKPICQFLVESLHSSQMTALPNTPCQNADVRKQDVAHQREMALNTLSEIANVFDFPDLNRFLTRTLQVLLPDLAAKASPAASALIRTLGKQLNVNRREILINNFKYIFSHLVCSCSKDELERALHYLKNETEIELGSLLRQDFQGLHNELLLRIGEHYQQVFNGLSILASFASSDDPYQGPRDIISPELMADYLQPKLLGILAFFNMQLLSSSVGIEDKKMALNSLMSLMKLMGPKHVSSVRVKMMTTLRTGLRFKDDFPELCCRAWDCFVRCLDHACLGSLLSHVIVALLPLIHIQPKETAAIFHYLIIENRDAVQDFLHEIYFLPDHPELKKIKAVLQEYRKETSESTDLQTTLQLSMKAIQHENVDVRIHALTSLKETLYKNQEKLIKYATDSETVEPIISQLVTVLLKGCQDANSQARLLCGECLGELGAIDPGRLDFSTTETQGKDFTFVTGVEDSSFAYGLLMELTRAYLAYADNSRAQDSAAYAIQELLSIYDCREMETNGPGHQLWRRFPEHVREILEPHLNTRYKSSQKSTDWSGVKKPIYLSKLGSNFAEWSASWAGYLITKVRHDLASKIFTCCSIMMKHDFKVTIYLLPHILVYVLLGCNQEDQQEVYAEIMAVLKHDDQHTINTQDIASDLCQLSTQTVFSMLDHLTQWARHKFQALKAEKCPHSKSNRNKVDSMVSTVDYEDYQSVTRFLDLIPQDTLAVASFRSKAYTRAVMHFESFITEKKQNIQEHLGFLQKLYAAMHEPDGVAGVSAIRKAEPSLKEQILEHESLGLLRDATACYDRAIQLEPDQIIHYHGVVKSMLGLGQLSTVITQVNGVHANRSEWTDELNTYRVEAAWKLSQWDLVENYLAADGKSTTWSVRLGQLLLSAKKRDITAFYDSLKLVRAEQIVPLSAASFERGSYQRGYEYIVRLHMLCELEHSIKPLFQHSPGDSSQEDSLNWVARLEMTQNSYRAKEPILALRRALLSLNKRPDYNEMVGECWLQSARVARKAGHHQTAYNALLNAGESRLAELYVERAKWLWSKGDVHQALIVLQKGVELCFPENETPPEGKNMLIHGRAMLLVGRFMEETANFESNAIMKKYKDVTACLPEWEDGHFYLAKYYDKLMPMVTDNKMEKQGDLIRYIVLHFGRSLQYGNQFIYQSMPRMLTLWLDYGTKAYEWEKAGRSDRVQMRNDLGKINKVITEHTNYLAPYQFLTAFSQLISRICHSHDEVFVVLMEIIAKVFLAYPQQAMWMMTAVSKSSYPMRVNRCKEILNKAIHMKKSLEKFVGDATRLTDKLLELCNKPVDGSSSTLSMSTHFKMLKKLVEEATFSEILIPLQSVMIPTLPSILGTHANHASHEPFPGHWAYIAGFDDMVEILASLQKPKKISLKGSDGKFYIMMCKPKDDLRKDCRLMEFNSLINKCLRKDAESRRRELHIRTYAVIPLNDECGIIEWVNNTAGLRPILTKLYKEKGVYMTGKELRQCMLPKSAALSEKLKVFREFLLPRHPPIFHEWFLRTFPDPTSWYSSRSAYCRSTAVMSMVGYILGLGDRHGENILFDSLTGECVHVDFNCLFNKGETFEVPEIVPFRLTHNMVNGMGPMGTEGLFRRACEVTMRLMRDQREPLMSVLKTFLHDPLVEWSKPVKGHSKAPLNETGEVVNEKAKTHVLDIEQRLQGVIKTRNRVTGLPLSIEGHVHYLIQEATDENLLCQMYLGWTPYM

One assay concerns the target ATR (Homo sapiens (Human), UniProt Q13535). Nature of the assay: Cellular ATR inhibition, western blot of CHK1(S345) phosphorylation in hydroxyurea treated cells. Format: cell-based. Particulars: HT29 cells, hydroxyurea 2.5 mM. On the procedure:
In addition to the selective system described above, Example compounds presented here were screened for their ability to inhibit intracellular ATR using a western blot assay to detect phosphorylation of the ATR substrate CHK1(S345) in hydroxyurea treated cells. HT29 cells are plated at 500,000 cells per well in 6-well plates in RPMI media (Sigma R6504) supplemented with 10% foetal bovine serum (Sigma F7524), Penicillin/Streptomycin solution diluted 1:100 (Gibco 15070-063), and fungizone (Gibco, 15290-018), and allowed to adhere overnight at 37° C. in 5% CO2. Compounds are then added to the cell media from a final concentration of 10 μM in 3-fold serial dilutions and the cells are incubated at 37° C. in 5% CO2. After 15 min, hydroxyurea (Sigma H8627) is added to a final concentration of 2.5 mM. After 30 min of treatment with hydroxyurea, the cells are washed in PBS, lysed adding 50 μl of in protein lysis buffer (50 mM Tris pH 7.5, 150 mM NaCl, 1% IGEPAL CO-630 (Sigma, Ref. 542334-100G-A), Phospho Stop (Roche, Ref. 04906837001) and Complete Mini EDTA free (Roche, Ref. 11836170001)). The protein content of the lysates was determined by the modified method of Bradford (Sigma, Ref. B6916). The proteins were resolved by SDS-PAGE and transferred to nitrocellulose membrane (VWR International Eurolab, Ref. 732-4007). The membranes were incubated overnight at 4° C. with antibodies specific for total CHK1 (Santa Cruz Biotechnology, sc-8404), phosphoserine-345 CHK1 (Cell Signaling Technology #2348) they were washed and then incubated with IRDye800 conjugated anti-mouse (Pierce/Cultek, 35521) and Alexa Fluor 680 goat anti-rabbit IgG secondary antibodies (Invitrogen, A21076). The bands were visualized and quantified using an Odyssey infrared imaging system (Li-Cor Biosciences). The percentage of phosphorylated CHK1 vs total CHK1 in cells treated with hydroxyurea was taken as hundred percent of phosphorylation. The percentage of CHK1 phosphorylation is finally plotted against concentration for each compound and EC50s for intracellular ATR inhibition are calculated using ActivityBase from IDBS.
`COc1cc(-c2nc3c(c(C4([S@TB1](C)(=O)=O)CCOCC4)n2)OCCC2COCCN32)c2cc[nH]c2c1` (stereo not drawn) [Example 34] had an EC50 of 100 to 1000 nM.
As to `CNc1nc2ccccc2n1-c1nc2c(c(C(C)(C)O)n1)OCC1COCCN21` (stereo not drawn) [Example 39], the EC50 was 100 to 1000 nM.
Same read-out and setting: next, `CNc1nc2ccccc2n1-c1nc2c(c(C(C)(C)[S@TB1](C)(=O)=O)n1)OCCC1COCCN21` (stereo not drawn) [Example 31]: less than 100 nM; `CS(=O)(=O)C1(c2nc(-c3cccc4[nH]ccc34)nc3c2OC[C@@H]2COCCN32)CCC1` [Example 67]: less than 100 nM; `CS(=O)(=O)C1(c2nc(-c3c(F)ccc4[nH]ccc34)nc3c2OCC2COCCN32)CCOCC1` (stereo not drawn) [Example 13]: 100 to 1000 nM.
The same measure, in the same setting: next, `CNc1nc2ccccc2n1-c1nc2c(c(C3(S(C)(=O)=O)CCOCC3)n1)OCC1COCCN21` (stereo not drawn) [Example 12]: 100 to 1000 nM.
As for `COc1ccc(-c2nc3c(c(C4(S(C)(=O)=O)CCOCC4)n2)OCC2COCCN32)c2cc[nH]c12` (stereo not drawn) [Example 37], the EC50 was 100 to 1000 nM.
On the same count and under the same terms, next, `COc1cc(-c2nc3c(c(C4(S(C)(=O)=O)CCC4)n2)OC[C@@H]2COCCN32)c2cc[nH]c2c1` [Example 78]: less than 100 nM; `CCNc1nc2ccccc2n1-c1nc2c(c(C(C)(C)S(C)(=O)=O)n1)OC[C@@H]1COCCN21` [Example 64]: 100 to 1000 nM.
Same read-out and setting: next, `CS(=O)(=O)C1(c2nc(-c3ccc(F)c4[nH]ccc34)nc3c2OC[C@@H]2COCCN32)CCC1` [Example 76]: greater than 1000 nM; `CCOC(=O)N1CCC(c2nc(-c3cccc4[nH]ccc34)nc3c2OC[C@@H]2COCCN32)(S(C)(=O)=O)CC1` [Example 68]: 100 to 1000 nM.
Molecule `C[S@TB17](=O)(=O)Nc1nc(-c2cccc3[nH]ccc23)nc2c1OCC1COCCN21` (stereo not drawn) [Example 35] came in with an EC50 greater than 1000 nM.
`CS(=O)(=O)C1(c2nc(-c3cccc4[nH]ccc34)nc3c2OCC[C@@H]2COCCN32)CCOCC1` [Example 22] registered an EC50 of 100 to 1000 nM.
On to `CS(=O)(=O)C1(c2nc(-c3cccc4[nH]ccc34)nc3c2OCC2COCCN32)CC1` (stereo not drawn) [Example 27], for which the EC50 was 100 to 1000 nM.
Same read-out and setting: next, `CS(=O)(=O)C1(c2nc(-c3cncc4[nH]ccc34)nc3c2OCC2COCCN32)CCOCC1` (stereo not drawn) [Example 9]: 100 to 1000 nM.
With `CC(C)(C#N)c1nc(-c2cccc3[nH]ccc23)nc2c1OCC1COCCN21` (stereo not drawn) [Example 40], the EC50 lay in the range of 100 to 1000 nM.
Still for that read-out and setting: next, `CCCNc1nc2ccccc2n1-c1nc2c(c(C(C)(C)S(C)(=O)=O)n1)OC[C@@H]1COCCN21` [Example 65]: less than 100 nM; `CNc1nc2ccc(Cl)cc2n1-c1nc2c(c(C3(S(C)(=O)=O)CCC3)n1)OC[C@@H]1COCCN21` [Example 95]: greater than 1000 nM.
`CNc1nc2cc(Cl)ccc2n1-c1nc2c(c(C3(S(C)(=O)=O)CCC3)n1)OC[C@@H]1COCCN21` [Example 94] had an EC50 greater than 1000 nM.
In turn, `Cc1cc2c(-c3nc4c(c(C5(S(C)(=O)=O)CCOCC5)n3)OCC3COCCN43)cccc2[nH]1` (stereo not drawn) [Example 20] returned an EC50 of 100 to 1000 nM.
The same measure, in the same setting: next, `CS(=O)(=O)C1(c2nc(-c3ccnc4[nH]ccc34)nc3c2OCC2COCCN32)CCOCC1` (stereo not drawn) [Example 18]: less than 100 nM.
`CC(C)(c1nc(-c2c(F)ccc3[nH]ccc23)nc2c1OCC1COCCN21)S(C)(=O)=O` (stereo not drawn) [Example 14] displayed an EC50 of 100 to 1000 nM.
`CS(=O)(=O)c1cccc(-c2nc(-c3cccc4[nH]ccc34)nc3c2OCC2COCCN32)c1` (stereo not drawn) [Example 43]: the EC50 was in the range of 100 to 1000 nM.
`CS(=O)(=O)C1(c2nc(-c3cc(F)cc4[nH]ccc34)nc3c2OCC2COCCN32)CCOCC1` (stereo not drawn) [Example 17] had an EC50 of less than 100 nM.
`CC(C)(O)c1nc(-c2cccc3[nH]ccc23)nc2c1OCC1COCCN21` (stereo not drawn) [Example 38] returned an EC50 of 100 to 1000 nM.
Molecule `CNc1nc2ccccc2n1-c1nc2c(c(C3(S(C)(=O)=O)CCOCC3)n1)OCCC1COCCN21` (stereo not drawn) [Example 32] displayed an EC50 greater than 1000 nM.
Still for that read-out and setting: next, `CS(=O)(=O)Cc1nc(-c2cccc3[nH]ccc23)nc2c1OCC1COCCN21` (stereo not drawn) [Example 7]: 100 to 1000 nM; `CC(C)(O)c1nc(-c2cc(F)cc3[nH]ccc23)nc2c1OC[C@@H]1COCCN21` [Example 45]: 100 to 1000 nM.
As to `CN(C)c1nc2ccccc2n1-c1nc2c(c(C(C)(C)S(C)(=O)=O)n1)OC[C@@H]1COCCN21` [Example 79], the half-maximal effective concentration (EC50) was in the range of 100 to 1000 nM.
On the same count and under the same terms, next, `CC(C)(c1nc(-c2cccc3[nH]ccc23)nc2c1OCC[C@@H]1COCCN21)S(C)(=O)=O` [Example 25]: 100 to 1000 nM.
The molecule `CC(C)(c1nc(-c2ccnc3[nH]ccc23)nc2c1OCC1COCCN21)S(C)(=O)=O` (stereo not drawn) [Example 16] yielded a concentration giving a half-maximal response (EC50) of 100 to 1000 nM.
Turning to `COc1cc(-c2nc3c(c(C4(S(C)(=O)=O)CCOCC4)n2)OCC2COCCN32)c2cc[nH]c2c1` (stereo not drawn) [Example 19], the EC50 was less than 100 nM.
Consider `CC(C)(c1nc(-c2cccc3[nH]ccc23)nc2c1OCC[C@H]1COCCN21)S(C)(=O)=O` [Example 24], for which the EC50 fell in the range of 100 to 1000 nM.
On the same count and under the same terms, next, `CC1(c2nc(-c3cccc4[nH]ccc34)nc3c2OCC2COCCN32)CCCS1(=O)=O` (stereo not drawn) [Example 41]: 100 to 1000 nM.
Same read-out and setting: next, `CS(=O)(=O)C1(c2nc(-c3cccc4[nH]ccc34)nc3c2OC[C@@H]2COCCN32)CCNCC1` [Example 69]: 100 to 1000 nM.
On the same count and under the same terms, next, `C[S@TB17](=O)(=O)C1(c2nc(-c3cc(F)cc4[nH]ccc34)nc3c2OCCC2COCCN32)CCOCC1` (stereo not drawn) [Example 33]: 100 to 1000 nM; `CC(C)(c1nc(-c2cccc3[nH]ccc23)nc2c1OCC1COCCN21)S(=O)(=O)C1CC1` (stereo not drawn) [Example 4]: less than 100 nM.
With `CC(C)Nc1nc2ccccc2n1-c1nc2c(c(C(C)(C)S(C)(=O)=O)n1)OC[C@@H]1COCCN21` [Example 63], the EC50 is less than 100 nM.
On the same count and under the same terms, next, `CN1CCC(c2nc(-c3cccc4[nH]ccc34)nc3c2OCC2COCCN32)(S(C)(=O)=O)CC1` (stereo not drawn) [Example 36]: greater than 1000 nM.
Same read-out and setting: next, `c1cc(-c2nc(-c3cccc4[nH]ccc34)c3c(n2)N2CCOCC2CO3)c2cc[nH]c2c1` (stereo not drawn) [Example 42]: 100 to 1000 nM; `CC(C)(c1nc(-c2cccc3[nH]ncc23)nc2c1OC[C@H]1COCCN21)S(C)(=O)=O` [Example 21]: greater than 1000 nM.

The assay is the same for the next values; noted with them: HT29 cells, hydroxyurea […].
As to `CNc1nc2cc(C#N)ccc2n1-c1nc2c(c(C(C)(C)S(C)(=O)=O)n1)OC[C@@H]1COCCN21` [Example 113], the EC50 was greater than 1000 nM.

In another assay the target is PI3K (p110α/p85α) (Homo sapiens (Human), UniProt P42336). Nature of the assay: PI3K alpha activity assay (ADP Hunter Plus). The assay is classed as biochemical. Particulars: 50 μM ATP, 30 μM PIP2; read-out: PI3Kα IC50. On the procedure:
The kinase activity was measured by using the commercial ADP Hunter™ Plus assay available from DiscoveRx (#33-016), which is a homogeneous assay to measure the accumulation of ADP, a universal product of kinase activity. […] The reaction was carried out for 1 hour at 25° C. Reagent A and B were sequentially added to the wells and plates were incubated for 30 min at 37° C. Fluorescence counts were read in a Victor instrument (Perkin Elmer) with the recommended settings (544 and 580 nm as excitation and emission wavelengths, respectively).
On to `COc1cc(-c2nc3c(c(C4(S(C)(=O)=O)CCC4)n2)OC[C@@H]2COCCN32)c2cc[nH]c2c1` [Example 78], for which the IC50 amounted to 4490 nM.
On the same count and under the same terms, next, `CS(=O)(=O)C1(c2nc(-c3ccc(F)c4[nH]ccc34)nc3c2OC[C@@H]2COCCN32)CCC1` [Example 76]: 50000 nM; `CN(C)c1nc2ccccc2n1-c1nc2c(c(C(C)(C)S(C)(=O)=O)n1)OC[C@@H]1COCCN21` [Example 79]: 28600 nM.
With `CC(C)(c1nc(-c2cccc3[nH]ccc23)nc2c1OCC[C@@H]1COCCN21)S(C)(=O)=O` [Example 25], the IC50 was found to be 23400 nM.

A further assay deals with mTOR (Homo sapiens (Human), UniProt P42345). Nature of the assay: mTOR activity assay (LanthaScreen). Format: biochemical.
Conditions: not given
Here is the method: The enzymatic mTOR activity was measured using a LanthaScreen™ kinase activity assay (Invitrogen). The enzyme was purchased from Invitrogen (PV4754), as well as the GFP-labelled substrate (4EBP1-GFP; PV4759) and the Tb-antip4EBP1(pThr46) antibody (PV4757). The assay was performed in 50 Mm HEPES buffer, pH 7.5, containing 1.5 mM MnCl2, 10 mM MgCl2, 1 mM EGTA, 2.5 mM DTT and 0.01% Tween-20. The concentration of the assay components were the following: 0.24 nM mTOR kinase, 400 nM 4EBP1-GFP, […] and serial dilutions of the compound (inhibitor) to be evaluated. After 1 h incubation at room temperature, 20 mM EDTA was used to stop the reaction and terbium-labelled antibody (4 nM) added to detect phosphorylated product. The antibody associates with the phosphorylated product resulting in an increased TR-FRET value. The TR-FRET value (a dimensionless number) was calculated as the ratio of the acceptor signal (GFP, emission at 520 nm) to the donor signal (terbium, emission at 495 nm).
`COc1cc(-c2nc3c(c(C4(S(C)(=O)=O)CCC4)n2)OC[C@@H]2COCCN32)c2cc[nH]c2c1` [Example 78] registered an IC50 of 47 nM.
`CC(C)(c1nc(-c2cccc3[nH]ccc23)nc2c1OCC[C@@H]1COCCN21)S(C)(=O)=O` [Example 25]: the IC50 came out at 582 nM.

Source of the values: US9453031B2, “Chemical entities” (Fundación Centro Nacional de Investigaciones Oncológicas …, priority 2013, dated 2016).
